# Data reported in patent publication US6953808B2, “Method for treating gastric disorders using optically pure (−) pantoprazole” (Sepracor Inc., priority 1993, dated 2005).
# Legend:
# H^+,K^+-ATPase = H^+,K^+-ATPase (Homo sapiens, UniProt P20648); conditions: cited from earlier work
# [1] = neutral and moderately acidic conditions; compared with omeprazole; cited from earlier work
# [2] = test system: endogenous acid secretion; assay: Inhibition of endogenous acid secretion in pylorus-ligated rats; type: in vivo, rat; conditions: ratio of doses for 50% reduction
# Text: This may increase pantoprazole's selectivity for the acid secreting parietal cells, where low pH conditions exist in the intracellular canaliculi. In intact animals, pantoprazole is active in inhibiting gastric acid secretion in both rats and dogs. Specifically, the intravenous and oral doses required to reduce endogenous acid secretion in pylorus-ligated rats by 50% are in the 1-3 μmole/kg range. […] Racemic pantoprazole is also effective at doses less than 5 μmole/kg in inhibiting exogenously stimulated acid secretion induced by a variety of agonists, indicating general activity of the drug in inhibiting acid secretion.
# [3] = test system: hepatic drug metabolizing enzyme systems; conditions: intact rats and rat microsomal enzyme preparations; compared to omeprazole; cited from earlier work
# [4] = test system: endogenous acid secretion; conditions: pylorus-ligated rats, cited from earlier work
# mice [5] = conditions: cited from earlier work
# duodenal ulcers = conditions: patients with duodenal ulcers, after four weeks of 20 to 80 mg per day; cited from earlier work
# serum gastrin = conditions: humans, short-term administration; cited from earlier work
# rat = conditions: cited from earlier work
# mice [6] = assay: Acute toxicity (LD50) in mice; type: in vivo
# [7] = test system: exogenously stimulated acid secretion; conditions: secretion induced by a variety of agonists; cited from earlier work
# rats = conditions: two year; cited from earlier work
# beta-adrenergic = conditions: cited from earlier work
# Chain of H^+,K^+-ATPase (P20648 whole entry): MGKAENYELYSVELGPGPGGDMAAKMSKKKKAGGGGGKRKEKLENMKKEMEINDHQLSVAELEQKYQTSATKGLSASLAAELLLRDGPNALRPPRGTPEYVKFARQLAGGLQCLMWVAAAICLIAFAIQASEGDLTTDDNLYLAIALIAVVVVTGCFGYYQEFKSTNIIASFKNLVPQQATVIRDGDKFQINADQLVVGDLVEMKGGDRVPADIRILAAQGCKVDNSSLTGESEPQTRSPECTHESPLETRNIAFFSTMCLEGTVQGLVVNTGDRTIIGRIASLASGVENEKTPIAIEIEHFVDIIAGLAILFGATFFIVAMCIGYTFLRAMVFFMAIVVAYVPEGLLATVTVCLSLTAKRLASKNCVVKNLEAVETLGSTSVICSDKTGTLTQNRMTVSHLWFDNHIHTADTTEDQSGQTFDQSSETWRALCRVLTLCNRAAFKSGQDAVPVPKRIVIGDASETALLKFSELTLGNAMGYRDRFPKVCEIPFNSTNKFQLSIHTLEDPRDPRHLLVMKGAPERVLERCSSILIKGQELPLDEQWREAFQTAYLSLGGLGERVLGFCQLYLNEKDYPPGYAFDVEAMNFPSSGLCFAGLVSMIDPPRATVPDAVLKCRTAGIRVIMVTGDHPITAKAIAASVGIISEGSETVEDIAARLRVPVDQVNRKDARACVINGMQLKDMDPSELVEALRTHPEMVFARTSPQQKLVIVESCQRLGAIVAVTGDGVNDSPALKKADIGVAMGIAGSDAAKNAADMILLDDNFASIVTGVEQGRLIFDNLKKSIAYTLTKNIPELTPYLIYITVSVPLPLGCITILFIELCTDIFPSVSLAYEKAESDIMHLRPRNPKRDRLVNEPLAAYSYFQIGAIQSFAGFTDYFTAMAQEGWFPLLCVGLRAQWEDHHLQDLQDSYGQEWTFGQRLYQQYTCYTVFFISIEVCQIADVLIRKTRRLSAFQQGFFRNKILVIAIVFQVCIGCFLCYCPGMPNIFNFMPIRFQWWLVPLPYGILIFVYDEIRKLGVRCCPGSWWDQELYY
# Chain of H^+,K^+-ATPase (P51164 whole entry partner): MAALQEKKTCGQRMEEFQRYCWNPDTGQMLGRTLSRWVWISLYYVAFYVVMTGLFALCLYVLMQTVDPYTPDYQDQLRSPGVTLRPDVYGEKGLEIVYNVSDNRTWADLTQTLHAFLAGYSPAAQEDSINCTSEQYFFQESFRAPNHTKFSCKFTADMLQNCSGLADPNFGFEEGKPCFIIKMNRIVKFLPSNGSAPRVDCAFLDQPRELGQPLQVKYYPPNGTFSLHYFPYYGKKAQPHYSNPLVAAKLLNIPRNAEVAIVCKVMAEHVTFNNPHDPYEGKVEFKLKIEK
smiles,measurement,setting,value
COc1ccnc(C[S+]([O-])c2nc3cc(OC(F)F)ccc3[n-]2)c1OC.[Na+] (racemic) [Racemic pantoprazole sodium],"inhibition of H+,K+-ATPase","H^+,K^+-ATPase","potent, irreversible inhibitor"
COc1ccnc(C[S+]([O-])c2nc3ccc(OC(F)F)cc3[nH]2)c1OC (racemic) [racemic pantoprazole],chemical stability,[1],more chemically stable
same,calculated oral/intravenous (p.o./i.v.) ratio,[2],approximately 2
same,inhibition of hepatic drug metabolizing enzyme systems,[3],weaker inhibitor
same,intravenous dose required to reduce endogenous acid secretion by 50%,[4]; intravenous,1 to 3 µmol/kg
same,oral dose required to reduce endogenous acid secretion by 50%,[4]; oral,1 to 3 µmol/kg
same,intravenous LD50,mice [5],975 µmol/kg
same,ulcer healing,duodenal ulcers,90-100%
same,fasting serum gastrin levels,serum gastrin,significantly elevated
same,oral LD50,"rat; in vivo, po","> 2,467 μmol/kg"
same,intravenous LD50,rat; intravenous,632 µmol/kg
same,p.o./i.v. LD50 ratio,mice [6],approximately 2
same,effective dose inhibiting exogenously stimulated acid secretion,[7],less than 5 μmole/kg
same,finding in carcinogenicity study,rats,hepatocellular neoplasia
"CC(C)NC[C@H](O)COc1cccc2ccccc12 [L-form of propranolol, propranolol]",potency relative to D-enantiomer,beta-adrenergic,100 times
